Experimental data taken from publication PMC9963398, “Discovery of New Quinolone-Based Diarylamides as Potent B-RAF^V600E/C-RAF Kinase Inhibitors Endowed with Promising In Vitro Anticancer Activity” (International Journal of Molecular Sciences, 2023).

Assays:
B-RAF^V600E = target: T1, B-RAF^V600E (Homo sapiens, UniProt P15056, V600E); assay: HotSpot kinase assay (RBC), B-RAF^V600E; assay type: biochemical; conditions: for IC50: 10 µM ATP, 10-dose singlicate IC50 mode
T1 construct: purchased Reaction Biology Corporation (RBC), Kinase HotSpot service
T1 sequence (P15056 whole entry V600E): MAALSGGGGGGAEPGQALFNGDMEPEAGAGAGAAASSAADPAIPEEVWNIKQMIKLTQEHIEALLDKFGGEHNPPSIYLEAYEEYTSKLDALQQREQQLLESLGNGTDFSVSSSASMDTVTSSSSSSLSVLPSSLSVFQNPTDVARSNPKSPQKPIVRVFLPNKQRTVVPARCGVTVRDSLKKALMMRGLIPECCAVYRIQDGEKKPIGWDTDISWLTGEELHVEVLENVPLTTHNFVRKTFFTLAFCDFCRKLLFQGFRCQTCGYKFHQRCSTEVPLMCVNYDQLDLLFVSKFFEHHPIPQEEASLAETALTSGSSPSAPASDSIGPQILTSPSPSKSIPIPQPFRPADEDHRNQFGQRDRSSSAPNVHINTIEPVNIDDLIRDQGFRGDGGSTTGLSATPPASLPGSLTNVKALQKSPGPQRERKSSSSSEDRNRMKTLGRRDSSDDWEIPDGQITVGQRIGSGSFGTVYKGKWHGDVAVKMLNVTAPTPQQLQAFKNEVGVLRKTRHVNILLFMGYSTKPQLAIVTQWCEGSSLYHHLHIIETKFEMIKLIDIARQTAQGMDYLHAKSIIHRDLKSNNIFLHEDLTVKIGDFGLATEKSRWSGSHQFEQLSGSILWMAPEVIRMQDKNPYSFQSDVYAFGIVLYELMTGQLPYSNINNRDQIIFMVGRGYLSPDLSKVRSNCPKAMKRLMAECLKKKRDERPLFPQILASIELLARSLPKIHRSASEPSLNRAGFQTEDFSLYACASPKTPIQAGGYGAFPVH

786-0 = assay: NCI-60 five-dose SRB assay; assay type: cell-based; conditions: Homo sapiens; 786-0, Renal cancer, five-dose test
Method: (§1) The anticancer screening of target compounds over a full panel of 60 human cancer cell lines was carried out using Sulforhodamine B (SRB) assay at the National Cancer Institute (NCI), Bethesda, Maryland, USA, employing the standard protocol.

A498 = assay: NCI-60 five-dose SRB assay; assay type: cell-based; conditions: Homo sapiens; A498, Renal cancer, five-dose test
Method: as §1

BT-549 = assay: NCI-60 five-dose SRB assay; assay type: cell-based; conditions: Homo sapiens; BT-549, Breast cancer, five-dose test
Method: as §1

CAKI-1 = assay: NCI-60 five-dose SRB assay; assay type: cell-based; conditions: Homo sapiens; CAKI-1, Renal cancer, five-dose test
Method: as §1

CCRF-CEM = assay: NCI-60 five-dose SRB assay; assay type: cell-based; conditions: Homo sapiens, Leukemia, five-dose test
Method: as §1

COLO 205 = assay: NCI-60 five-dose SRB assay; assay type: cell-based; conditions: Homo sapiens; COLO 205, Colon cancer, five-dose test
Method: as §1

DU-145 = assay: NCI-60 five-dose SRB assay; assay type: cell-based; conditions: Homo sapiens; DU-145, Prostate cancer, five-dose test
Method: as §1

EKVX = assay: NCI-60 five-dose SRB assay; assay type: cell-based; conditions: Homo sapiens, NSCL cancer, five-dose test
Method: as §1

HCC-2998 = assay: NCI-60 five-dose SRB assay; assay type: cell-based; conditions: Homo sapiens; HCC-2998, Colon cancer, five-dose test
Method: as §1

HCT-116 = assay: NCI-60 five-dose SRB assay; assay type: cell-based; conditions: Homo sapiens; HCT-116, Colon cancer, five-dose test
Method: as §1

HCT-15 = assay: NCI-60 five-dose SRB assay; assay type: cell-based; conditions: Homo sapiens; HCT-15, Colon cancer, five-dose test
Method: as §1

HOP-92 = assay: NCI-60 five-dose SRB assay; assay type: cell-based; conditions: Homo sapiens; HOP-92, NSCL cancer, five-dose test
Method: as §1

HS 578T = assay: NCI-60 five-dose SRB assay; assay type: cell-based; conditions: Homo sapiens, Breast cancer, five-dose test
Method: as §1

HT29 = assay: NCI-60 five-dose SRB assay; assay type: cell-based; conditions: Homo sapiens, HT-29; HT29, Colon cancer, five-dose test
Method: as §1

IGROV1 = assay: NCI-60 five-dose SRB assay; assay type: cell-based; conditions: Homo sapiens, IGROV-1; IGROV1, Ovarian cancer, five-dose test
Method: as §1

LOX IMVI = assay: NCI-60 five-dose SRB assay; assay type: cell-based; conditions: Homo sapiens, Melanoma, five-dose test
Method: as §1

MALME-3M = assay: NCI-60 five-dose SRB assay; assay type: cell-based; conditions: Homo sapiens, Melanoma, five-dose test
Method: as §1

MCF7 = assay: NCI-60 five-dose SRB assay; assay type: cell-based; conditions: Homo sapiens; MCF7, Breast cancer, five-dose test
Method: as §1

MDA-MB-435 = assay: NCI-60 five-dose SRB assay; assay type: cell-based; conditions: Homo sapiens; MDA-MB-435, Melanoma, five-dose test
Method: as §1

MOLT-4 = assay: NCI-60 five-dose SRB assay; assay type: cell-based; conditions: Homo sapiens; MOLT-4, Leukemia, five-dose test
Method: as §1

NCI-H23 = assay: NCI-60 five-dose SRB assay; assay type: cell-based; conditions: Homo sapiens; NCI-H23, NSCL cancer, five-dose test
Method: as §1

NCI-H322M = assay: NCI-60 five-dose SRB assay; assay type: cell-based; conditions: Homo sapiens, NSCL cancer, five-dose test
Method: as §1

NCI-H460 = assay: NCI-60 five-dose SRB assay; assay type: cell-based; conditions: Homo sapiens; NCI-H460, NSCL cancer, five-dose test
Method: as §1

NCI-H522 = assay: NCI-60 five-dose SRB assay; assay type: cell-based; conditions: Homo sapiens; NCI-H522, NSCL cancer, five-dose test
Method: as §1

OVCAR-3 = assay: NCI-60 five-dose SRB assay; assay type: cell-based; conditions: Homo sapiens; OVCAR-3, Ovarian cancer, five-dose test
Method: as §1

OVCAR-5 = assay: NCI-60 five-dose SRB assay; assay type: cell-based; conditions: Homo sapiens; OVCAR-5, Ovarian cancer, five-dose test
Method: as §1

OVCAR-8 = assay: NCI-60 five-dose SRB assay; assay type: cell-based; conditions: Homo sapiens; OVCAR-8, Ovarian cancer, five-dose test
Method: as §1

RXF 393 = assay: NCI-60 five-dose SRB assay; assay type: cell-based; conditions: Homo sapiens; RXF 393, Renal cancer, five-dose test
Method: as §1

SF-295 = assay: NCI-60 five-dose SRB assay; assay type: cell-based; conditions: Homo sapiens; SF-295, CNS cancer, five-dose test
Method: as §1

SF-539 = assay: NCI-60 five-dose SRB assay; assay type: cell-based; conditions: Homo sapiens; SF-539, CNS cancer, five-dose test
Method: as §1

SK-MEL-28 = assay: NCI-60 five-dose SRB assay; assay type: cell-based; conditions: Homo sapiens; SK-MEL-28, Melanoma, five-dose test
Method: as §1

SK-MEL-2 = assay: NCI-60 five-dose SRB assay; assay type: cell-based; conditions: Homo sapiens; SK-MEL-2, Melanoma, five-dose test
Method: as §1

SK-MEL-5 = assay: NCI-60 five-dose SRB assay; assay type: cell-based; conditions: Homo sapiens; SK-MEL-5, Melanoma, five-dose test
Method: as §1

SNB-19 = assay: NCI-60 five-dose SRB assay; assay type: cell-based; conditions: Homo sapiens; SNB-19, CNS cancer, five-dose test
Method: as §1

SNB-75 = assay: NCI-60 five-dose SRB assay; assay type: cell-based; conditions: Homo sapiens; SNB-75, CNS cancer, five-dose test
Method: as §1

UO-31 = assay: NCI-60 five-dose SRB assay; assay type: cell-based; conditions: Homo sapiens; UO-31, Renal cancer, five-dose test
Method: as §1

MDA-MB-231/ATCC = assay: cells; conditions: Homo sapiens
Method: as §1

MDA-MB-468 = assay: cells; conditions: Homo sapiens
Method: as §1

PC-3 = assay: cells; conditions: Homo sapiens
Method: as §1

C-RAF = C-RAF (Homo sapiens, UniProt P04049); assay: HotSpot kinase assay (RBC), C-RAF; conditions: for IC50: IC50 C-RAF, 10 µM ATP, 10-dose singlicate IC50 mode
Sequence of C-RAF (P04049 whole entry): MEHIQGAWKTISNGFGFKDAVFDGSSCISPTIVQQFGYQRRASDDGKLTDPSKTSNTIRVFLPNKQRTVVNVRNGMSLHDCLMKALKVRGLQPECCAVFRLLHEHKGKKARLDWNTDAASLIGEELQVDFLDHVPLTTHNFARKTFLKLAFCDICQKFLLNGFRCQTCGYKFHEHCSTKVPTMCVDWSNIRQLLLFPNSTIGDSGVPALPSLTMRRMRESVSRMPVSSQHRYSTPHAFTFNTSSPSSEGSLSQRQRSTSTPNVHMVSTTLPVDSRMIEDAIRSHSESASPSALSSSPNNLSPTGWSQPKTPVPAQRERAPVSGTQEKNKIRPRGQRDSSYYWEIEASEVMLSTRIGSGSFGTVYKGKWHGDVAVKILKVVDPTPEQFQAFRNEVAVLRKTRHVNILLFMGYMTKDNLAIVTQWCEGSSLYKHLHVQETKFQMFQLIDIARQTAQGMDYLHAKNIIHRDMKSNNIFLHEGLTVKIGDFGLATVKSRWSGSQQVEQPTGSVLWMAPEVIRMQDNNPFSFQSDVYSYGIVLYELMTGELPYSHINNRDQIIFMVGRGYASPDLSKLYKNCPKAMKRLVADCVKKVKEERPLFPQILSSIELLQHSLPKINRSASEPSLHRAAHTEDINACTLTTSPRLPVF
Description: Reaction Biology Corporation (RBC) Kinase HotSpotSM service was utilized for cell-free biochemical kinase evaluation of the target compounds according to the reported assay protocol [46].

Compound: COc1cccc2nc(Nc3ccc(F)c(NC(=O)c4ccc(CN5CCN(C)CC5)c(C(F)(F)F)c4)c3)ccc12 [Compound 15a, N-(2-fluoro-5-((5-methoxyquinolin-2-yl)amino)phenyl)-4-((4-methylpiperazin-1-yl)methyl)-3-(trifluoromethyl)benzamide]
- IC50 (B-RAF^V600E): 0.314 ± 0.0229 µM
- GI50 (786-0): 12.5 µM
- GI50 (A498): 16.9 µM
- GI50 (BT-549): 10.5 µM
- GI50 (CAKI-1): 11.5 µM
- GI50 (CCRF-CEM): 9.71 µM
- GI50 (COLO 205): 17.2 µM
- GI50 (DU-145): 12.9 µM
- GI50 (EKVX): 14.7 µM
- GI50 (HCC-2998): 18.8 µM
- GI50 (HCT-116): 8.75 µM
- GI50 (HCT-15): 13.4 µM
- GI50 (HOP-92): 6.64 µM
- GI50 (HS 578T): 14.1 µM
- GI50 (HT29): 3.61 µM
- GI50 (IGROV1): 14.5 µM
- GI50 (LOX IMVI): 13.8 µM
- GI50 (MALME-3M): 11.7 µM
- GI50 (MCF7): 12.3 µM
- GI50 (MDA-MB-435): 15.1 µM
- GI50 (MOLT-4): 4.1 µM
- GI50 (NCI-H23): 15.5 µM
- GI50 (NCI-H322M): 15.2 µM
- GI50 (NCI-H460): 15.9 µM
- GI50 (NCI-H522): 16 µM
- GI50 (OVCAR-3): 14.4 µM
- GI50 (OVCAR-5): 16.1 µM
- GI50 (OVCAR-8): 15.8 µM
- GI50 (RXF 393): 3.71 µM
- GI50 (SF-295): 17.1 µM
- GI50 (SF-539): 12.4 µM
- GI50 (SK-MEL-28): 15.3 µM
- GI50 (SK-MEL-2): 16.1 µM
- GI50 (SK-MEL-5): 15.5 µM
- GI50 (SNB-19): 17.2 µM
- GI50 (SNB-75): 9.09 µM
- GI50 (UO-31): 12.6 µM
- GI50 (MDA-MB-231/ATCC): 12.1 µM
- GI50 (MDA-MB-468): 4.79 µM
- GI50 (PC-3): 12 µM
- IC50 (C-RAF): 0.161 ± 0.00157 µM

Compound: COc1ccc2nc(Nc3cccc(NC(=O)c4ccc(CN5CCN(C)CC5)c(C(F)(F)F)c4)c3)ccc2c1 [Compound 16a, N-(3-((6-methoxyquinolin-2-yl)amino)phenyl)-4-((4-methylpiperazin-1-yl)methyl)-3-(trifluoromethyl)benzamide]
- IC50 (B-RAF^V600E): 0.193 ± 0.0076 µM
- better kinase inhibition activity compared to 14a, B-RAF^V600E (B-RAF^V600E; ratio of IC50 versus 14a): 2.6 fold
- GI50 (786-0): 5 µM
- GI50 (A498): 7.35 µM
- GI50 (BT-549): 5.58 µM
- GI50 (CAKI-1): 4.9 µM
- GI50 (CCRF-CEM): 2.15 µM
- GI50 (COLO 205): 5.78 µM
- GI50 (DU-145): 5.24 µM
- GI50 (EKVX): 4.53 µM
- GI50 (HCC-2998): 5.25 µM
- GI50 (HCT-116): 2.41 µM
- GI50 (HCT-15): 1.18 µM
- GI50 (HOP-92): 1.36 µM
- GI50 (HS 578T): 4.14 µM
- GI50 (HT29): 1.32 µM
- GI50 (IGROV1): 6.22 µM
- GI50 (LOX IMVI): 1.55 µM
- GI50 (MALME-3M): 4.62 µM
- GI50 (MCF7): 1.37 µM
- GI50 (MDA-MB-435): 5.73 µM
- GI50 (MOLT-4): 1.63 µM
- GI50 (NCI-H23): 5.06 µM
- GI50 (NCI-H322M): 6.06 µM
- GI50 (NCI-H460): 1.88 µM
- GI50 (NCI-H522): 4.88 µM
- GI50 (OVCAR-3): 5.89 µM
- GI50 (OVCAR-5): 6.1 µM
- GI50 (OVCAR-8): 5.82 µM
- GI50 (RXF 393): 1.75 µM
- GI50 (SF-295): 3.41 µM
- GI50 (SF-539): 2.08 µM
- GI50 (SK-MEL-28): 5.33 µM
- GI50 (SK-MEL-2): 5.98 µM
- GI50 (SK-MEL-5): 5.1 µM
- GI50 (SNB-19): 6.14 µM
- GI50 (SNB-75): 0.684 µM
- GI50 (UO-31): 5.68 µM
- GI50 (MDA-MB-231/ATCC): 1.84 µM
- GI50 (MDA-MB-468): 1.56 µM
- GI50 (PC-3): 2.9 µM
- IC50 (C-RAF): 0.103 ± 0.00265 µM
- better kinase inhibition activity compared to 14a, C-RAF (C-RAF; ratio of IC50 versus 14a): 1.5 fold
